Data reported in US12324927B2, “Methods and systems for photodynamic therapy calculations” (THE TRUSTEES OF THE UNIVERSITY OF PENNSYLVANIA, priority 2018, dated 2025).
Where “and” joins values, the source holds several entries; their conditions need not be identical. Identical values can stand only once.

Tested on: radiation-induced fibrosarcoma (RIF) tumors
Test: Preclinical Photofrin-PDT of RIF tumors: [ROS]rx by ROSED from Oxylite-measured or DCS blood-flow-derived oxygen
Assay type: in vivo, mice
Details: per mouse; for Initial Photofrin concentration, [PS]: in tumor, 5 mg/kg i.v. 24 h before light, 5 mg/kg; for Calculated [ROS]rx, Measured [^3O2] / Calculated [ROS]rx, DCS blood flow: 75 mW/cm^2, 1800 or 3333 s; for Calculated [ROS]rx, Measured [^3O2]: Oxylite-measured oxygen; for Calculated [ROS]rx, DCS blood flow: blood-flow-derived oxygen
Protocol: Tumor model and PDT treatment conditions: A preclinical study was conducted using a murine model to investigate the relationship between the dynamics of tumor oxygen and blood flow during PDT. Female C3H mice (Charles River Laboratories, Kingston, NY) between 6 to 8 weeks of age were used in this study. Radiation-induced fibrosarcoma (RIF) tumors were propagated on the shoulders of mice by intradermal injection of 3×10^5 cells. The mice were fed with chlorophyll-free (alfalfa-free) rodent diet (Harlan Laboratories Inc., Indianapolis, Indiana, US) for two weeks prior to treatment to eliminate the fluorescence signal from chlorophyll-breakdown products, which overlap with the emission spectrum of Photofrin fluorescence. PDT was performed when tumors reached ˜4-5 mm in diameter. The treatment area was depilated with Nair (Church & Dwight Co., Inc., Ewing, New Jersey, US) and 5 mg/kg Photofrin was injected via tail vein 24 hours prior to measurements and light delivery. Tissue optical properties and Photofrin fluorescence spectra were obtained using a custom-made multi-fiber contact probe, as described elsewhere (18, 19), before and after PDT. Tissue oxygenation and blood flow changes were monitored continuously during the delivery of PDT using oximeter and DCS as described below. At a 24-h drug-light interval, superficial irradiation of the tumor was performed with a 630-nm laser (Biolitec AG., A-1030, Vienna). A microlens fiber was coupled to the laser to irradiate the tumor uniformly. Animals used in this study were under the care of the University of Pennsylvania Laboratory Animal Resources and the studies were approved by the University of Pennsylvania Institutional Animal Care and Use Committee.
Measurement of tumor tissue oxygenation during preclinical PDT: Tumor oxygen was monitored throughout the PDT treatment in mice using an optical oxygen partial pressure (pO2) monitor (OxyLite Pro, Oxford Optronix, Oxford, UK), with a bare-fiber-type probe (NX-BF/O/E, Oxford Optronix, Oxford, UK). The tip of the probe was inserted into the tumor at approximately 1-2 mm depth from the treatment surface to measure the changes in tissue oxygen partial pressure within the tumor mass during PDT. ^3O2 concentration was then approximated by multiplying the measured pO2 with ^3O2 solubility in tissue, which is 1.295 μM/mmHg (20, 21).
Measurement of blood flow during preclinical PDT: Tumor blood flow was measured using DCS, an optical technique that measures the rapid speckle intensity fluctuations induced by blood flow. DCS, within a noncontact probe setup, was used to monitor blood flow changes in mice during PDT. A detailed description of the DCS instrument can be found in (22, 23). Briefly, a continuous wave 785-nm laser with long coherence length (CrystaLaser Inc., Reno, NV) delivered light through a source fiber, and the diffuse reflected light was collected using two single mode fibers located 0.3 cm laterally from the source fiber. These fibers were mounted on the imaging plane of a camera with sensor removed. A camera lens was used to focus the laser and to collect diffuse reflected light from the tumor at a fixed distance of 15 cm from the camera lens. This setup permits noncontact blood flow measurements during PDT without obstructing the treatment light. Two single photon counting avalanche photodiodes were used to detect the diffuse light in parallel. Notch filters at 630 nm and a 785 nm bandpass filter were used to prevent the ambient room light and the strong 630-nm treatment laser from saturating the detectors. Tissue blood flow measurements started 5 minutes before the beginning of PDT treatment and lasted until completion of PDT.
Calculation of [ROS]rx using ROSED: The PDT process is described by a set of kinetic equations which can be simplified to compute the production of [ROS]rx (4, 8, 9, 13). […]

Photofrin
Initial Photofrin concentration, [PS] (treatment time 1800 s): 6.9 µM and 6.8 µM and 5.2 µM and 5.7 µM
Initial Photofrin concentration, [PS] (treatment time 3333 s): 6.5 µM and 4.2 µM and 4.5 µM
Calculated [ROS]rx, Measured [^3O2] (treatment time 1800 s): 1.39 mM and 1.24 mM and 1.07 mM and 1.09 mM
Calculated [ROS]rx, Measured [^3O2] (treatment time 3333 s): 2.33 mM and 1.73 mM and 1.89 mM
Calculated [ROS]rx, DCS blood flow (treatment time 1800 s): 1.35 mM and 1.18 mM and 1.12 mM and 0.95 mM
Calculated [ROS]rx, DCS blood flow (treatment time 3333 s): 2.21 mM and 1.92 mM and 1.81 mM
